Test results as given in US20260062443A1 (ALEXION PHARMACEUTICALS, INC., priority 2022, published 2026).

target: T1, Human complement C1s enzyme (Homo sapiens, UniProt P09871); experiment: Human C1s enzyme assay; assay type: biochemical; conditions: human complement C1s enzyme 1.16 nM, substrate Z-L-Lys-SBzl 100 μM, 5 min preincubation; read-out: IC50 (Stars), C1s Inhibiting Activity
T1 sequence (P09871 438-688 limits assumed): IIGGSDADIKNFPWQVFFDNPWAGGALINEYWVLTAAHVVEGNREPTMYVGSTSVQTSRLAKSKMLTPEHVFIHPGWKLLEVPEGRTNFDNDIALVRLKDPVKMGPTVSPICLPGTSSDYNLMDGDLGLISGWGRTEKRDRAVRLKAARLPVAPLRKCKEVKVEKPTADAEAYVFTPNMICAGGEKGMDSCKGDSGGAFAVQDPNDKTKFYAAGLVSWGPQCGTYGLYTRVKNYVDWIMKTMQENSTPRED
T1 sequence (P09871 16-437 partner limits assumed): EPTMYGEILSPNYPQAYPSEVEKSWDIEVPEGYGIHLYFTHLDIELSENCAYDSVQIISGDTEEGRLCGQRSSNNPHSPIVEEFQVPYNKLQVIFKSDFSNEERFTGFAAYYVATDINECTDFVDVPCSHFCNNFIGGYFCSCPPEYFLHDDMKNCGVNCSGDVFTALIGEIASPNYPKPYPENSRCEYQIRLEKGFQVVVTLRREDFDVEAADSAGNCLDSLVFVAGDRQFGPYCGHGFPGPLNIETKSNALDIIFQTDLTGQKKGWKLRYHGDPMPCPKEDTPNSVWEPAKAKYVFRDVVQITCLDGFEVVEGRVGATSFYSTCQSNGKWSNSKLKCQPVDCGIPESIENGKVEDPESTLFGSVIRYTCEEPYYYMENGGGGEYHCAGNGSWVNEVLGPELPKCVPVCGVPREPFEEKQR
Experimental: Other standard complement assays are also available.
Human complement C1s enzyme (purified from human serum, Complement Technology, Inc.) at 1.16 nM final concentration was incubated with test compound at various concentrations for 5 min at room temperature in 50 mM Tris, 1 M NaCl, pH 7.5. A synthetic substrate Z-L-Lys-SBzl and DTNB (Ellman's reagent) were added to final concentrations of 100 μM each. Absorbance at 405 nm (A405) was recorded at 30 second intervals for 30 min using a microplate spectrophotometer. IC50 values were calculated by nonlinear regression of complement C1 s reaction rates as a function of test compound concentration.
ND indicates a compound for which the IC50 value is not determined.

Structure (SMILES) | IC50 [nM]
Cn1c(CNC(=O)[C@@H]2CC3(CN2C(=O)CNC(=O)c2ccc4c(c2)Oc2ccccc2S4)OCCO3)cc2cnccc21 [Compound 46, (S)-N-((1-methyl-1H-pyrrolo[3,2-c]pyridin-2-yl)methyl)-7-((phenoxathiine-3-carbonyl)glycyl)-1,4-dioxa-7-azaspiro[4.4]nonane-8-carboxamide] | > 1000
O=C(NCC(=O)N1CC2(C[C@H]1C(=O)NCc1cc3nccnc3[nH]1)OCCO2)c1ccc2c(c1)Oc1ccccc1S2 [Compound 48, (S)-N-((5H-pyrrolo[2,3-b]pyrazin-6-yl)methyl)-7-((phenoxathiine-3-carbonyl)glycyl)-1,4-dioxa-7-azaspiro[4.4]nonane-8-carboxamide] | > 1000
O=C(NCC(=O)N1CC2(C[C@H]1C(=O)NCc1nc3cnccc3[nH]1)OCCO2)c1ccc2c(c1)Oc1ccccc1S2 [Compound 49, (S)-N-((1H-imidazo[4,5-c]pyridin-2-yl)methyl)-7-((phenoxathiine-3-carbonyl)glycyl)-1,4-dioxa-7-azaspiro[4.4]nonane-8-carboxamide] | > 1000
O=C(NCC(=O)N1CC2(C[C@H]1C(=O)NCc1cc3cnccc3o1)OCCO2)c1ccc2c(c1)Oc1ccccc1S2 [Compound 50, (S)-N-(furo[3,2-c]pyridin-2-ylmethyl)-7-((phenoxathiine-3-carbonyl)glycyl)-1,4-dioxa-7-azaspiro[4.4]nonane-8-carboxamide] | 100 to 1000
O=C(NCC(=O)N1CC2(C[C@H]1C(=O)NCc1cc3cc(Br)ccc3[nH]1)OCCO2)c1ccc2c(c1)Oc1ccccc1S2 [Compound 55, (S)-N-((5-bromo-1H-indol-2-yl)methyl)-7-((phenoxathiine-3-carbonyl)glycyl)-1,4-dioxa-7-azaspiro[4.4]nonane-8-carboxamide] | > 1000
C[C@@H](NC(=O)[C@@H]1C[C@]2(C)C[C@@H]2N1C(=O)CNC(=O)CCCOc1ccccc1)c1cc2cnccc2[nH]1 [Compound 56, (1S,3S,5S)-N-((R)-1-(1H-pyrrolo[3,2-c]pyridin-2-yl)ethyl)-5-methyl-2-((4-phenoxybutanoyl)glycyl)-2-azabicyclo[3.1.0]hexane-3-carboxamide] | 100 to 1000
C[C@H](NC(=O)[C@@H]1C[C@]2(C)C[C@@H]2N1C(=O)CNC(=O)CCCOc1ccccc1)c1cc2cnccc2[nH]1 [Compound 57, (1S,3S,5S)-N-((S)-1-(1H-pyrrolo[3,2-c]pyridin-2-yl)ethyl)-5-methyl-2-((4-phenoxybutanoyl)glycyl)-2-azabicyclo[3.1.0]hexane-3-carboxamide] | > 1000
C[C@@]12C[C@@H]1N(C(=O)CNC(=O)CCCOc1ccccc1)[C@H](C(=O)NCc1cc3cnccc3[nH]1)C2 [Compound 58, (1S,3S,5S)-N-((1H-pyrrolo[3,2-c]pyridin-2-yl)methyl)-5-methyl-2-((4-phenoxybutanoyl)glycyl)-2-azabicyclo[3.1.0]hexane-3-carboxamide] | < 100
C[C@@]12C[C@@H]1N(C(=O)CNC(=O)CCCOc1ccccc1)[C@H](C(=O)NCCCn1ccnc1)C2 [Compound 59, (1S,3S,5S)-N-(3-(1H-imidazol-1-yl)propyl)-5-methyl-2-((4-phenoxybutanoyl)glycyl)-2-azabicyclo[3.1.0]hexane-3-carboxamide] | > 1000
C[C@@]12C[C@@H]1N(C(=O)CNC(=O)CCCOc1ccccc1)[C@H](C(=O)N[C@@H]1CCN(C(=O)CCN)C1)C2 [Compound 60, (1S,3S,5S)-N-((R)-1-(3-aminopropanoyl)pyrrolidin-3-yl)-5-methyl-2-((4-phenoxybutanoyl)glycyl)-2-azabicyclo[3.1.0]hexane-3-carboxamide] | > 1000
C[C@@]12C[C@@H]1N(C(=O)CNC(=O)CCCOc1ccccc1)[C@H](C(=O)N[C@@H]1CCN(Cc3c[nH]cn3)C1=O)C2 [Compound 61, (1S,3S,5S)-N-((R)-1-((1H-imidazol-4-yl)methyl)-2-oxopyrrolidin-3-yl)-5-methyl-2-((4-phenoxybutanoyl)glycyl)-2-azabicyclo[3.1.0]hexane-3-carboxamide] | > 1000
Cc1cc(CN)cc(C2(NC(=O)[C@@H]3C[C@]4(C)C[C@@H]4N3C(=O)CNC(=O)CCCOc3ccccc3)CC2)c1 [Compound 64, (1S,3S,5S)-N-(1-(3-(aminomethyl)-5-methylphenyl)cyclopropyl)-5-methyl-2-((4-phenoxybutanoyl)glycyl)-2-azabicyclo[3.1.0]hexane-3-carboxamide] | > 1000
Cn1c(C2(NC(=O)[C@@H]3C[C@]4(C)C[C@@H]4N3C(=O)CNC(=O)CCCOc3ccccc3)CC2)nc2ccncc21 [Compound 65, (1S,3S,5S)-5-methyl-N-(1-(3-methyl-3H-imidazo[4,5-c]pyridin-2-yl)cyclopropyl)-2-((4-phenoxybutanoyl)glycyl)-2-azabicyclo[3.1.0]hexane-3-carboxamide] | > 1000
C[C@@]12C[C@@H]1N(C(=O)CNC(=O)CCCOc1ccccc1)[C@H](C(=O)NCc1ccc3c(c1)CNC3)C2 [Compound 67, (1S,3S,5S)-N-(isoindolin-5-ylmethyl)-5-methyl-2-((4-phenoxybutanoyl)glycyl)-2-azabicyclo[3.1.0]hexane-3-carboxamide] | 100 to 1000
C[C@@H](NC(=O)[C@@H]1CC2(CN1C(=O)CNC(=O)c1ccc(-c3ccc(F)cc3F)cc1)OCCO2)c1cc2cnccc2[nH]1 [Compound 68, (S)-N-((R)-1-(1H-pyrrolo[3,2-c]pyridin-2-yl)ethyl)-7-((2′,4′-difluoro-[1,1′-biphenyl]-4-carbonyl)glycyl)-1,4-dioxa-7-azaspiro[4.4]nonane-8-carboxamide] | 100 to 1000

The next lines start with the values.

IC50 [nM] | Structure (SMILES)
< 100 | C[C@@H](NC(=O)[C@@H]1CC2(CN1C(=O)CNC(=O)c1ccc3c(c1)Oc1ccccc1S3)OCCO2)c1cc2cnccc2[nH]1 [Compound 47, (S)-N-((R)-1-(1H-pyrrolo[3,2-c]pyridin-2-yl)ethyl)-7-((phenoxathiine-3-carbonyl)glycyl)-1,4-dioxa-7-azaspiro[4.4]nonane-8-carboxamide]
> 1000 | Nc1nccc2ccc(CNC(=O)[C@@H]3CC4(CN3C(=O)CNC(=O)c3ccc5c(c3)Oc3ccccc3S5)OCCO4)cc12 [Compound 51, (S)-N-((1-aminoisoquinolin-7-yl)methyl)-7-((phenoxathiine-3-carbonyl)glycyl)-1,4-dioxa-7-azaspiro[4.4]nonane-8-carboxamide]
> 1000 | COc1ccc2[nH]c(CNC(=O)[C@@H]3CC4(CN3C(=O)CNC(=O)c3ccc5c(c3)Oc3ccccc3S5)OCCO4)cc2c1 [Compound 52, (S)-N-((5-methoxy-1H-indol-2-yl)methyl)-7-((phenoxathiine-3-carbonyl)glycyl)-1,4-dioxa-7-azaspiro[4.4]nonane-8-carboxamide]
> 1000 | O=C(NCC(=O)N1CC2(C[C@H]1C(=O)NCc1cc3cncc(Cl)c3[nH]1)OCCO2)c1ccc2c(c1)Oc1ccccc1S2 [Compound 53, (S)-N-((7-chloro-1H-pyrrolo[3,2-c]pyridin-2-yl)methyl)-7-((phenoxathiine-3-carbonyl)glycyl)-1,4-dioxa-7-azaspiro[4.4]nonane-8-carboxamide]
< 100 | O=C(NCC(=O)N1CC2(C[C@H]1C(=O)NCc1cc3cnccc3s1)OCCO2)c1ccc2c(c1)Oc1ccccc1S2 [Compound 54, (S)-7-((phenoxathiine-3-carbonyl)glycyl)-N-(thieno[3,2-c]pyridin-2-ylmethyl)-1,4-dioxa-7-azaspiro[4.4]nonane-8-carboxamide]
> 1000 | C[C@@]12C[C@@H]1N(C(=O)CNC(=O)CCCOc1ccccc1)[C@H](C(=O)NC1(c3ccc4c(c3)CNCC4)CC1)C2 [Compound 62, (1S,3S,5S)-5-methyl-2-((4-phenoxybutanoyl)glycyl)-N-(1-(1,2,3,4-tetrahydroisoquinolin-7-yl)cyclopropyl)-2-azabicyclo[3.1.0]hexane-3-carboxamide]
> 1000 | C[C@@]12C[C@@H]1N(C(=O)CNC(=O)CCCOc1ccccc1)[C@H](C(=O)NCc1cnc3c(CN)cccn13)C2 [Compound 63, (1S,3S,5S)-N-((8-(aminomethyl)imidazo[1,2-a]pyridin-3-yl)methyl)-5-methyl-2-((4-phenoxybutanoyl)glycyl)-2-azabicyclo[3.1.0]hexane-3-carboxamide]
> 1000 | C[C@@]12C[C@@H]1N(C(=O)CNC(=O)CCCOc1ccccc1)[C@H](C(=O)OCc1cc3c(cn1)CNC3)C2 [Compound 66, (2,3-dihydro-1H-pyrrolo[3,4-c]pyridin-6-yl)methyl (1S,3S,5S)-5-methyl-2-((4-phenoxybutanoyl)glycyl)-2-azabicyclo[3.1.0]hexane-3-carboxylate]
